What all share (format): binding
In assay [1] the target is T1, PCSK9 (Homo sapiens, UniProt Q8NBP7).
T1 construct: biotin (biotinylated); purchased
In words: PCSK9 Alexa FRET Plus TR-FRET assay. Conditions: biotinylated PCSK9 0.5 nM, 960 nM AF cyclic peptide Reagent B; Ki calculated from IC50 and KD of AF peptide. The protocol:
(§1) The following is a description of the assays used to determine activity of compounds of the invention, and any comparator compounds reported, toward PCSK9 antagonism. Biotinylated PCSK9 was obtained commercially.
An Echo is used to transfer 0.075 ul of compound plus 0.675 ul of DMSO to each well of an assay plate followed by the addition of 15 ul of PCSK9+Stept-Eu and 15 ul of AF peptide. […] The reaction is incubated at room temperature for at least two hours prior to fluorescence measurements using an Envision Multilabel Reader. IC50 values are determined by fitting data to a sigmoidal dose-response curve using nonlinear regression. Ki is then calculated from the Ic50 and the KD of AF cyclic peptide. Counts (B-counts) of the europium-labeled PCSK9 are followed to observe if compounds are adversely affecting PCSK9. […] Data from this procedure is reported as “P=‘numerical value’ (nanomolar)”

In assay [2] the target is T1, PCSK9. In words: PCSK9 Alexa FRET Standard TR-FRET assay. Conditions: biotinylated PCSK9 0.5 nM, 20 nM AF cyclic peptide Reagent A; Ki calculated from IC50 and KD of AF peptide; read-out: Alexa FRET Stdt TR-FRET. The protocol:
as §1
A separate solution containing 40 nM of the AlexaFluor tagged cyclic peptide is made in the same buffer system. An Echo is used to transfer 0.750 ul of compound to an assay plate followed by the addition of 15 ul of PCSK9+Stept-Eu and 15 ul of AF peptide. […] The reaction is incubated at room temperature for at least two hours prior to fluorescence measurements using an Envision Multilabel Reader. IC50 values are determined by fitting data to a sigmoidal dose-response curve using nonlinear regression. Ki is then calculated from the Ic50 and the KD of AF cyclic peptide. Counts (B-counts) of the europium-labeled PCSK9 are followed to observe if compounds are adversely PCSK9. A fall off of the B-counts likely indicates a false positive of inhibition. Data from this procedure is reported as “A=‘numerical value’ (nanomolar)”

Assay [3] deals with T1, PCSK9. In words: PCSK9 Alexa FRET Ultra TR-FRET assay. The protocol:
The following is a description of the assays used to determine activity of compounds of the invention, and any comparator compounds reported, toward PCSK9 antagonism. Biotinylated PCSK9 was obtained commercially. […] An Echo is used to transfer 0.015 ul of compound plus 0.735 ul of DMSO to each well of an assay plate followed by the addition of 15 ul of PCSK9+Stept-Eu and 15 ul of AF peptide. […] The reaction is incubated at room temperature for at least two hours prior to fluorescence measurements using an Envision Multilabel Reader. IC50 values are determined by fitting data to a sigmoidal dose-response curve using nonlinear regression. Ki is then calculated from the Ic50 and the KD of AF cyclic peptide. Counts (B-counts) of the europium-labeled PCSK9 are followed to observe if compounds are adversely affecting PCSK9. […] Data from this procedure is reported as “Ki Ultra=‘numerical value’ (data reported is nanomolar)”
A general note: In TR-FRET formats the signal depends on donor and acceptor labels being close together.

The mark [4] stands for this setting: Ki Ultra, biotinylated PCSK9 0.5 nM, 960 nM AF cyclic peptide, Ki calculated from IC50 and KD of AF peptide, read-out: Alexa FRET Ultra TR-FRET.

T1 sequence (Q8NBP7 153-692): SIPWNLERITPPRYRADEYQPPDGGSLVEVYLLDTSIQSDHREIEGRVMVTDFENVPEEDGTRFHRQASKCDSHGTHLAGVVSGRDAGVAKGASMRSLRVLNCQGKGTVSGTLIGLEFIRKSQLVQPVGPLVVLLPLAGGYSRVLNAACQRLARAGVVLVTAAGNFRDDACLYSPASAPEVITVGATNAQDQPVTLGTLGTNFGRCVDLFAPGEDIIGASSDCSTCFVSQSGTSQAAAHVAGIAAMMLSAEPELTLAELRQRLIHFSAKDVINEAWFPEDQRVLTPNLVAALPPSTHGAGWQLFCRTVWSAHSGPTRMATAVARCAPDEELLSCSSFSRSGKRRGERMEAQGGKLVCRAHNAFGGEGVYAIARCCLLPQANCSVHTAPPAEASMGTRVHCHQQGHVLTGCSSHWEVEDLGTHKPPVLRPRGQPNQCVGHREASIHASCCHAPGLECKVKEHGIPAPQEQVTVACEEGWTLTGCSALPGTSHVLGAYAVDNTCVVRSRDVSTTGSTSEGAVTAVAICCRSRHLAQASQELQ

As to `COc1ccc(C[C@@H]2NC(=O)[C@H]([C@@H](C)O)NC(=O)[C@@H]3[C@@H]4CCN3C(=O)[C@@H]3Cc5cn(c6ccc(F)cc56)Cc5cn(nn5)Cc5cc(ccc5CNC(=O)CCCCCC(=O)N[C@H](CNC(=O)CCOCCOCC[N+](C)(C)CCNC(=O)COCCOCCNC(=O)COCCOCCNC(=O)CC[C@H](NC(=O)CCCCCCCCCCCCCCC(=O)O)C(=O)O)C(=O)N[C@@H](Cc5cccc(c5)C/C=C/CO4)C(=O)N3)CCNC(=O)[C@]3(C)CCCN3C2=O)cc1` [Example 5], the values for the Ki at PCSK9 [1], at PCSK9 [2] and at PCSK9 [3] (setting [4]) were 0.036 nM, below 1.26 nM and 0.13 nM, respectively.

As for `COc1ccc(C[C@@H]2NC(=O)[C@H]([C@@H](C)O)NC(=O)[C@@H]3[C@@H]4CCN3C(=O)[C@@H]3Cc5cn(c6ccc(F)cc56)Cc5cn(nn5)Cc5cc(ccc5CNC(=O)CCCCCC(=O)N[C@H](CNC(=O)CCOCCOCC[N+](C)(C)CCNC(=O)COCCOCCNC(=O)COCCOCCNC(=O)CC[C@H](NC(=O)CC[C@H](NC(=O)CCCCCCCCCCCCCCCCC(=O)O)C(=O)O)C(=O)O)C(=O)N[C@@H](Cc5cccc(c5)C/C=C/CO4)C(=O)N3)CCNC(=O)[C@]3(C)CCCN3C2=O)cc1` [Example 6], the Ki was 0.049 nM on PCSK9 [1], below 1.26 nM at PCSK9 [2] and 0.36 nM at PCSK9 [3] (setting [4]).

Regarding `COc1ccc(C[C@@H]2NC(=O)[C@H]([C@@H](C)O)NC(=O)[C@@H]3[C@@H]4CCN3C(=O)[C@@H]3Cc5cn(c6ccc(F)cc56)Cc5cn(nn5)Cc5cc(ccc5CNC(=O)CCCCCC(=O)N[C@H](CNC(=O)COCCOCCNC(=O)CC[C@H](NC(=O)CCOCCOCC[N+](C)(C)CCNC(=O)COCCOCCNC(=O)COCCOCCNC(=O)CCC(NC(=O)CCCCCCCCCCCCCCCCC(=O)O)C(=O)O)C(=O)O)C(=O)N[C@@H](Cc5cccc(c5)C/C=C/CO4)C(=O)N3)CCNC(=O)[C@]3(C)CCCN3C2=O)cc1` (some centres unmarked) [Example 1], the Ki at PCSK9 [1] was 0.205 nM; on PCSK9 [2], below 1.26 nM; at PCSK9 [3] (setting [4]), 0.488 nM.

As to `COc1ccc(C[C@@H]2NC(=O)[C@H]([C@@H](C)O)NC(=O)[C@@H]3[C@@H]4CCN3C(=O)[C@@H]3Cc5cn(c6ccc(F)cc56)Cc5cn(nn5)Cc5cc(ccc5CNC(=O)CCCCCC(=O)N[C@H](CNC(=O)COCCOCC[N+](C)(C)CCNC(=O)COCCOCCNC(=O)COCCOCCNC(=O)CCC(NC(=O)CCCCCCCCOCCCCCCCCC(=O)O)C(=O)O)C(=O)N[C@@H](Cc5cccc(c5)C/C=C/CO4)C(=O)N3)CCNC(=O)[C@]3(C)CCCN3C2=O)cc1` (some centres unmarked) [Example 2], the Ki at PCSK9 [1] is 0.024 nM; on PCSK9 [2], below 1.26 nM; at PCSK9 [3] (setting [4]) it was 0.14 nM.

As to `COc1ccc(C[C@@H]2NC(=O)[C@H]([C@@H](C)O)NCC(=O)[C@@H]3[C@@H]4CCN3C(=O)[C@@H]3Cc5cn(c6ccc(F)cc56)Cc5cn(nn5)Cc5cc(ccc5CNC(=O)CCCCCC(=O)N[C@H](CNC(=O)CCOCCOCC[N+](C)(C)CCOCCNC(=O)COCCOCCNC(=O)COCCOCCNC(=O)CC[C@H](NC(=O)CC[C@H](NC(=O)CCCCCCCCCCCCCCC(=O)O)C(=O)O)C(=O)O)C(=O)N[C@@H](Cc5cccc(c5)C/C=C/CO4)C(=O)N3)CCNC(=O)[C@]3(C)CCCN3C2=O)cc1` [Example 4], the Ki on PCSK9 [1] is 0.037 nM; at PCSK9 [2], below 1.26 nM; on PCSK9 [3] (setting [4]), 0.16 nM.

As for `COc1ccc(C[C@@H]2NC(=O)[C@H]([C@@H](C)Oc3cn(CCNC(=O)CCOCCOCC[N+](C)(C)CCNC(=O)COCCOCCNC(=O)COCCOCCNC(=O)CCC(NC(=O)CC[C@H](NC(=O)CCCCCCCCCCCCCCCCC(=O)O)C(=O)O)C(=O)O)nn3)NC(=O)[C@@H]3[C@@H]4CCN3C(=O)[C@@H]3Cc5cn(c6ccc(F)cc56)CCCCCCN(Cc5ccc(cc5)CCNC(=O)[C@]5(C)CCCN5C2=O)C(=O)CCC(=O)N[C@@H](C)C(=O)N[C@H](CNC(=O)CCOCCOCC[N+](C)(C)C)C(=O)N[C@@H](Cc2cccc(c2)C/C=C/CO4)C(=O)N3)cc1` (some centres unmarked) [Example 9], the figures for the Ki on PCSK9 [1], at PCSK9 [2] and at PCSK9 [3] were below 0.006 nM, below 1.26 nM and 0.003 nM, respectively.

With `COc1ccc(C[C@@H]2NC(=O)[C@H]([C@@H](C)O)NC(=O)[C@@H]3[C@@H]4CCN3C(=O)[C@@H]3Cc5cn(c6ccc(F)cc56)Cc5cn(nn5)Cc5cc(ccc5CNC(=O)CCCCCC(=O)N[C@H](CNC(=O)CCOCCOCC[N+](C)(C)CCNC(=O)COCCOCCNC(=O)COCCOCCNC(=O)CC[C@@H](NC(=O)CC[C@@H](NC(=O)CCCCCCCCCCCCCCCCC(=O)O)C(=O)O)C(=O)O)C(=O)N[C@@H](Cc5cccc(c5)C/C=C/CO4)C(=O)N3)CCNC(=O)[C@]3(C)CCCN3C2=O)cc1` [Example 3], the Ki on PCSK9 [1] was 0.082 nM; at PCSK9 [2], below 1.26 nM; on PCSK9 [3] (setting [4]) it was 0.43 nM.

Turning to `COc1ccc(C[C@@H]2NC(=O)[C@H]([C@@H](C)O)NC(=O)[C@@H]3[C@@H]4CCN3C(=O)[C@@H]3Cc5cn(c6ccc(F)cc56)CCCCCCN(Cc5ccc(cc5)CCNC(=O)[C@]5(C)CCCN5C2=O)C(=O)CCOCCC(=O)N[C@H](CNC(=O)CCOCCOCC[N+](C)(C)CCNC(=O)COCCOCCNC(=O)COCCOCCNC(=O)CC[C@H](NC(=O)CC[C@H](NC(=O)CCCCCCCCCCCCCCCCC(=O)O)C(=O)O)C(=O)O)C(=O)N[C@@H](Cc2cccc(c2)CNC(=O)CO4)C(=O)N3)cc1` [Example 10], the Ki on PCSK9 [1] was below 0.006 nM; on PCSK9 [2], below 1.26 nM; on PCSK9 [3], 0.004 nM.

Consider `COc1ccc(C[C@@H]2NC(=O)[C@H]([C@@H](C)OCc3cn(CCNC(=O)COCCOCCNC(=O)COCCOCCNC(=O)CC[C@H](NC(=O)CCCCCCCCCCCCCCCCC(=O)O)C(=O)O)nn3)NC(=O)[C@@H]3[C@@H]4CCN3C(=O)[C@@H]3Cc5cn(c6ccc(F)cc56)CCCCCCN(Cc5ccc(cc5)CCNC(=O)[C@]5(C)CCCN5C2=O)C(=O)CCC(=O)N[C@@H](C)C(=O)N[C@H](CNC(=O)CCOCCOCC[N+](C)(C)C)C(=O)N[C@@H](Cc2cccc(c2)CNC(=O)CO4)C(=O)N3)cc1` [Example 8], for which the figures for the Ki on PCSK9 [1], on PCSK9 [2] and at PCSK9 [3] were below 0.006 nM, below 1.26 nM and 0.006 nM, respectively.

For the compound `COc1ccc(C[C@@H]2NC(=O)[C@H]([C@@H](C)OCc3cn(CCNC(=O)CCOCCOCC[N+](C)(C)C)nn3)NC(=O)[C@@H]3[C@@H]4CCN3C(=O)[C@@H]3Cc5cn(c6ccc(F)cc56)CCCCCCN(Cc5ccc(cc5)CCNC(=O)[C@]5(C)CCCN5C2=O)C(=O)CCC(=O)N[C@@H](C)C(=O)N[C@H](CNC(=O)COCCOCCNC(=O)COCCOCCNC(=O)CC[C@H](NC(=O)CCCCCCCCCCCCCCCCC(=O)O)C(=O)O)C(=O)N[C@@H](Cc2cccc(c2)CNC(=O)CO4)C(=O)N3)cc1` [Example 7], the Ki on PCSK9 [1] is below 0.006 nM; on PCSK9 [2] it was below 1.26 nM; at PCSK9 [3] (setting [4]), 0.004 nM.

As to `COc1ccc(C[C@@H]2NC(=O)[C@H]([C@@H](C)O)NC(=O)[C@@H]3[C@@H]4CCN3C(=O)[C@@H]3Cc5cn(c6ccc(F)cc56)CCCCCCN(Cc5ccc(cc5)CCNC(=O)[C@]5(C)CCCN5C2=O)C(=O)CCCCCC(=O)N[C@H](CNC(=O)CCOCCOCC[N+](C)(C)CCNC(=O)COCCOCCNC(=O)COCCOCCNC(=O)CC[C@H](NC(=O)CCCCCCCCCCCCCCC(=O)O)C(=O)O)C(=O)N[C@@H](Cc2cccc(c2)CNC(=O)CO4)C(=O)N3)cc1` [Example 13], the figures for the Ki on PCSK9 [1] and on PCSK9 [2] were below 0.006 nM and below 1.26 nM, respectively.

For the compound `COc1ccc(C[C@@H]2NC(=O)[C@H]([C@@H](C)O)NC(=O)[C@@H]3[C@@H]4CCN3C(=O)[C@@H]3Cc5cn(c6ccc(F)cc56)CCCCCCN(Cc5ccc(cc5)CCNC(=O)[C@]5(C)CCCN5C2=O)C(=O)CCOCCC(=O)N[C@H](CNC(=O)CCOCCOCC[N+](C)(C)CCNC(=O)COCCOCCNC(=O)COCCOCCNC(=O)CCC(NC(=O)CCCCCCCCCCCCCCC(=O)O)C(=O)O)C(=O)N[C@@H](Cc2cccc(c2)CNC(=O)CO4)C(=O)N3)cc1` (some centres unmarked) [Example 11], the Ki at PCSK9 [1] is below 0.006 nM; at PCSK9 [2] it was below 1.26 nM; on PCSK9 [3] (setting [4]), 0.001 nM.

The values are drawn from patent publication US12577259B2, “PCSK9 antagonist compounds” (MERCK SHARP & DOHME LLC, priority 2019, dated 2026).
